Values joined by “and” are separate entries in the source; they are usually repeats but may differ in a detail not shown here. Equal values may be shown once. Non-standard residues stand in square brackets, D forms with d. Residues, ends and D or L forms follow the SMILES beside them. *: point of attachment. sY = N[C@@H](Cc1ccc(OS(=O)(=O)O)cc1)C(=O)O; OCH2CH2Ph = c1ccc(CCO*)cc1; Nle = CCCC[C@H](N)C(=O)O
T1: CCK1R (Homo sapiens, UniProt P32238)
T1 sequence (P32238 1-428): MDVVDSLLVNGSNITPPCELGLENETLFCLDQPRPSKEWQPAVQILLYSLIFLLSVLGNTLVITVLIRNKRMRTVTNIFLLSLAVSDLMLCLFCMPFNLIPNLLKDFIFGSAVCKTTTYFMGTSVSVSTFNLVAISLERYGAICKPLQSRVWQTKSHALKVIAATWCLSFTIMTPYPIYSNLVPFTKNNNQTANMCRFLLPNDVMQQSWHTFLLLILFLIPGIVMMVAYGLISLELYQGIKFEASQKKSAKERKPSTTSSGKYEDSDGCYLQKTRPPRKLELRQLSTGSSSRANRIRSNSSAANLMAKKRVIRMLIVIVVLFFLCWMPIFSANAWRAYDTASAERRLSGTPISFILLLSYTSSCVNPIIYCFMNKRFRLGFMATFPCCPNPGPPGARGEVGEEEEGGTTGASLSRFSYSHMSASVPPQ

T2: type 1 cholecystokinin receptor (CCK1R) (UniProt P32238)
T2 sequence: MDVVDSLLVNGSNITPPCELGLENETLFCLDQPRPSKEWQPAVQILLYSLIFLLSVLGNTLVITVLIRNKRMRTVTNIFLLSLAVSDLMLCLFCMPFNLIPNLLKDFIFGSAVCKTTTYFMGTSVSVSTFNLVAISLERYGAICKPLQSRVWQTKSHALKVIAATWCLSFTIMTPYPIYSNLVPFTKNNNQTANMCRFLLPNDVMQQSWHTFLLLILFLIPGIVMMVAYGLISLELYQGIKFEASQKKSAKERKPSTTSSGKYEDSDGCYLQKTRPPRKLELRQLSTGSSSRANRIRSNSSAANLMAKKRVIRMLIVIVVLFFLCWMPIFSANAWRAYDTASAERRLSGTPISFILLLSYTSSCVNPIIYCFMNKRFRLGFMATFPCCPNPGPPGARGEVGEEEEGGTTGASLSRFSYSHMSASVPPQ


What was measured:
CCK1R [1] = target: T1, CCK1R; experiment: Intracellular calcium assay (Fura-8-AM) in CHO-CCK1R cells; assay type: cell-based; set-up: expressed in transfected cells; settings: CHO-CCK1R cells, agonist alone; mean ± SEM
Experimental: Biological activity was quantified in the CHO cell lines described above using intracellular calcium assays that were performed, as previously described, using Fura-8-AM (AAT Bioquest, Pleasonton, CA, USA). Full agonist dose–response curves were performed along with determination of maximal responses to 0.1 mM ATP, targeting an endogenous receptor present on the parental cells. Concentration–response curves of peak intracellular calcium responses were analyzed and plotted as percentages of maximal responses using non-linear regression analysis in Prism 9.1 (GraphPad).

[2] = target: T2, type 1 cholecystokinin receptor (CCK1R)
CCK1R [3] = target: T1, CCK1R; experiment: IP-One accumulation TR-FRET assay, agonist format, HEK-293 CCK1R cells; assay type: cell-based; set-up: expressed in transfected cells; host or cells: HEK-293; settings: for Emax: HEK293, relative to CCK control, read-out: CCK1R Ago (IP-One) Emax
How it was run: (§1)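 HEK-293 cells overexpressing CCK1R were plated overnight, then given compounds (top 50 µM, 16-point 2-fold) for 30 min at 37 °C. CCK stimulator with 50 mM LiCl (PAM format) or DMSO (agonist format) followed for 1 h. IP-One was read by TR-FRET; activity score = CCK-normalized Emax × pEC50.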

[4] = target: T3, vasopressin-2 receptor (AVP2R) (Homo sapiens, UniProt P30518); experiment: AVP2R cAMP HTRF accumulation assay; assay type: cell-based; settings: for AVP2R PAM (cAMP) Score (activity score = normalized Emax × pEC50) / EC50 / Emax: CHO-K1 AVP2R cells; for EC50 / Emax: PAM format with vasopressin, original hits: agonist and PAM data combined, average ± SD
T3 construct: expressed in transfected cells; host or cells: CHO-K1 (PAM format); HEK-293 (agonist format)
How it was run: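 Readout is HTRF cAMP detection (30 min, room temperature) following 30 min compound exposure with vasopressin stimulation, using HEK-293 cells for agonist mode and CHO-K1 cells for PAM mode, both overexpressing AVP2R, in IBMX-containing HBSS/HEPES buffer. Curves: 16 points, 2-fold steps, duplicate, ≥2 experiments.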

CCK1R [5] = target: T1, CCK1R; experiment: IP-One accumulation TR-FRET assay, PAM format, HEK-293 CCK1R cells; assay type: cell-based; set-up: expressed in transfected cells; host or cells: HEK-293; settings: for Emax: HEK293, relative to CCK control; for Emax / CCK1R PAM (IP-One) Score (activity score = normalized Emax × pEC50) / EC50: HEK-293 CCK1R cells; for Emax / CCK1R PAM (IP-One) Score (activity score = normalized Emax × pEC50): PAM format; for Emax / EC50: average ± SD; for EC50: PAM format with EC20 CCK; for CCK1R IP-One activity (in words): PAM and agonist formats
How it was run: as §1

T3 sequence (P30518 whole entry): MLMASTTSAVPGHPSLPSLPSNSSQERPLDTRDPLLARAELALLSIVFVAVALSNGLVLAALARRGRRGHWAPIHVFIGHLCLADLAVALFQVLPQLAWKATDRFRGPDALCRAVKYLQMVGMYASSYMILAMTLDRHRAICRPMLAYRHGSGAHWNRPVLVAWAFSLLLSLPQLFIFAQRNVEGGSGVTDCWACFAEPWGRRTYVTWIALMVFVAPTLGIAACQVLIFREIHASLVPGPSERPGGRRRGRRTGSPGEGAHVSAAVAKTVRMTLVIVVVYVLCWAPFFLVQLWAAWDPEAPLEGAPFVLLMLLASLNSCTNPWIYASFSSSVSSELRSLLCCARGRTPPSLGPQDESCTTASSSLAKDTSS

Molecule	pEC50 agonist-induced intracellular calcium response (CCK1R [1])	pEC50 of intracellular calcium response (Fura-8-AM), CHO-CCK1R cells [2]	pEC50 of intracellular calcium response (Fura-8-AM), CHO-CCK1R cells, with 10 µM hit 1 [2]	pEC50 of intracellular calcium response (Fura-8-AM), CHO-CCK1R cells, with 10 µM hit 6 [2]	CCK1R Ago (IP-One) Score (activity score = normalized Emax × pEC50) (CCK1R [3])	Emax (CCK1R [3]; average ± SD) [%]	AVP2R PAM (cAMP) Score (activity score = normalized Emax × pEC50) ([4]; PAM format)	EC50 [4] [µM]	Emax [4] [%]	AVP2R cAMP response (in words) ([4]; PAM format)	Emax (CCK1R [5]) [%]	CCK1R PAM (IP-One) Score (activity score = normalized Emax × pEC50) (CCK1R [5])	EC50 (CCK1R [5]) [µM]	CCK1R IP-One activity (in words) (CCK1R [5])	EC50 (CCK1R [3]; average ± SD, read-out: CCK1R Ago (IP-One) EC50) [µM]
CCCC[C@H](NC(=O)[C@H](Cc1ccc(OS(=O)(=O)O)cc1)NC(=O)[C@H](CC(=O)O)NC(=O)CNC(=O)[C@H](N)Cc1ccc(O)cc1)C(=O)NCC(=O)N[C@@H](Cc1c[nH]c2ccccc12)C(=O)N[C@@H](CCCC)C(=O)N[C@@H](CC(=O)O)C(=O)OCCc1ccccc1 [CCK-OPE, D-Tyr-Gly-[(Nle^28,31)CCK-26-32]-phenethyl ester, reference compound] (H-[dY]GD[sY][Nle]GW[Nle]D-OCH2CH2Ph; N-terminus assumed)	7.3 ± 0.2														
D-Tyr-Gly-[(Nle^28,31)CCK-26-32]-phenethyl ester (peptide)		7.3	8	8.1											
O=C(CSc1ncnc2c1sc1nc(N3CCOCC3)c3c(c12)CCCC3)NCc1ccco1 [CMP-65]					0	0	4.78	10 ± 1.7	96 ± 5	strong activation of AVP2R-mediated cAMP accumulation	0	0			
CCCc1nc2sc3c(NCCN4CCOCC4)ncnc3c2c2c1CCCC2 [CMP-8]					0		2.3 and 2.31	15.7 ± 8.4	48 ± 12		53 ± 1	2.34	37.8 ± 3.9		
OCCN1CCN(c2ncnc3c2sc2nc(-c4ccccc4)c4c(c23)CCC4)CC1 [CMP-37]					0	0	0		0		28 ± 9	1.26	31.7 ± 1.2	loss of activities across all formats	
CC(C)Cc1nc2sc3c(NCCN4CCOCC4)ncnc3c2c2c1CCCC2 [CMP-34]					0		2.13	7.8 ± 4	42 ± 17		34 ± 13	1.50	29 ± 13.1		
CCN(CC)CCNc1ncnc2c1sc1nc(-c3ccccc3)c3c(c12)CCCC3 [CMP-11]					1.0 and 0.96	21 ± 2	2.4 and 2.44	3.2 ± 1.1	44 ± 8		45 ± 6	2.3 and 2.27	9.1 ± 4.8		27.1 ± 15.3
CCN(CC)CCNc1ncnc2c1sc1nc(N3CCCCC3)c3c(c12)CCCC3 [CMP-6]					0	0	1.7 and 1.67	9.9 ± 0.5	33 ± 1		57 ± 27	2.6 and 2.58	13.8 ± 3.2		
CN(C)CCNc1ncnc2c1sc1nc(N3CCOCC3)c3c(c12)CCCC3 [CMP-4]					0	0	1.2	12.8 ± 14	24.5 ± 7.1		62 ± 33	2.71	14.4 ± 1.5		
O=C(O)CSc1ncnc2c1sc1nc(N3CCOCC3)c3c(c12)CCCC3 [CMP-45]					0	0	1.46	37.9 ± 7	33 ± 13		0	0		displayed no effects	
CCCCNc1ncnc2c1sc1nc(N3CCOCC3)c3c(c12)CCCC3 [CMP-48]					0	0	0		0		0	0		None of these analogs showed any CCK1R activity	
KAPSGRMSIVKNLQNLDPSHRISDRDYMGWMDF [CCK-33]		9.6	10.7	10.7											

Reference: paper PMC9964746, “Mechanism of Action and Structure–Activity Relationships of Tetracyclic Small Molecules Acting as Universal Positive Allosteric Modulators of the Cholecystokinin Receptor” (Membranes, 2023)
